Laboratory results from patent publication US20230234931A1, “NON-STEROIDAL ANTI-INFLAMMATORY COMPOUNDS” (University of Houston System, priority 2022, published 2023).

Tests used:
COX-2-10aa-mPGES-1 = target: T1, COX-2-10aa-mPGES-1 (Homo sapiens, UniProt O14684+P35354); assay: Inhibition of PGE2 production in HEK293 cells expressing Enzymelink COX-2-10aa-mPGES-1; assay type: cell-based; settings: HEK-293 cells, 1, 3 and 10 μM, arachidonic acid 0.5 μM, PGE2 by ELISA, compared with NS-398 (FIG. 9)
T1 construct: COX-2 (fusion partner); gene PTGS2, human entry P35354 by own knowledge; expressed in transfected cells; host or cells: HEK293
T1 sequence (P35354+O14684 with tags, fused parts or gaps): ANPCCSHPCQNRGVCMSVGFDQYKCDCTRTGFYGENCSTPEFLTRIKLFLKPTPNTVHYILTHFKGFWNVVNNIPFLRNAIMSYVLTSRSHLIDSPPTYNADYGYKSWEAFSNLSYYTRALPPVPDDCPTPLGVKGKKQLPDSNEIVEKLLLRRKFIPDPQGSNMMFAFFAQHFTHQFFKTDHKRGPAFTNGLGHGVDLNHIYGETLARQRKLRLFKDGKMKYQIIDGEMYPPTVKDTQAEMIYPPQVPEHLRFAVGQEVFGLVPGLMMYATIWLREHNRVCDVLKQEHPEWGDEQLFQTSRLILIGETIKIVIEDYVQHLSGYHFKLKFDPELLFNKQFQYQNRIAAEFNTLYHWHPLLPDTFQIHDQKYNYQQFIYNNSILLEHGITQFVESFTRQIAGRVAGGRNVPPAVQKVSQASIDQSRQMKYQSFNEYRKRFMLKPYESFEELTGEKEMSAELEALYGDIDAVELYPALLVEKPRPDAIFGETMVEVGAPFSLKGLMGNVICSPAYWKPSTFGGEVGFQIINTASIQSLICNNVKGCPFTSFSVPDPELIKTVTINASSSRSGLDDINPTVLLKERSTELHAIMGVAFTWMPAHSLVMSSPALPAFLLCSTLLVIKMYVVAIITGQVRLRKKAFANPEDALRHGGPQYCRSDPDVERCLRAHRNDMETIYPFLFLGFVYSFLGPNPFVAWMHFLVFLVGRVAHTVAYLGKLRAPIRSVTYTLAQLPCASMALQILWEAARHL
Method: FIG. 9. Dose response curves for the effects of the synthesized derivatives on mPGES-1-synthesized inflammatory PGE2, compared with COX-2 inhibitor. HEK-293 cells expressing inflammatory PGE-producing Enzymelink, COX-2-10aa-mPGES-1 described previously (11) were treated with increasing concentrations (1 μM, 3 μM, and 10 μM), of the derivatives. Arachidonic acid (0.5 μM) was added to initiate the biosynthesis of PGE2 through COX-2 and mPGES-1 catalysis (11). The produced PGE2 was detected by ELISA (11). COX-2 inhibitor, NS-398 was used as positive control. An unrelated chemical compound (#6) was used as a negative control.
COX linked PG synthase cDNAs of the hybrid enzyme COX-2 C-terminus was linked to the PGES N-terminus with 10 amino acids (COX-2-10aa-PGES) was constructed by a polymerase chain reaction (PCR) cloning approach. The resultant cDNA was sub-cloned into pcDNATM3.1 vectors containing a cytomegalovirus immediate-early promoter (11, 16).
The recombinant enzyme was expressed in HEK293 cells. […] The enzyme expressions were determined by a Western blot analysis. […]
The effect of compounds that inhibited PGE2 production were determined by HPLC. […]
The inhibitory effect on PGE2 production by mPGES-1 was determined by using previously developed HEK293 cells expressing our engineered Enzymelink, COX-2-10aa-mPGES-1.

PC-3 cells = assay: Cancer cell PC-3 migration assay (gap size); assay type: cell-based; settings: after 39 hours of culture, compared with NS-398
Method: FIG. 10A-C. Anti-inflammatory and anti-cancer activities in cell cultural conditions. PC-3 migration assay treated with the lead compound #10. FIG. 10A The representative images of the PC-3 migration at 0 hour (left) and 39 hours (right) with DMSO, NS-398, and #10. FIG. 10B The time-course gap size of the PC-3 migration. The gap size was obtained using NIS-element software (NIKON). n=6. FIG. 10C Quantitative and significant analyses.
One day before the experiment, about 8.4×10^6 of PC-3 cells were cultured in 6-well plates with 2 mL of growth medium. A marker line was drawn on the outside plates to identify viewing spots. The medium was pre-warmed, and each treatment (DMSO, NS-398, and #10) was mixed with the medium. The cells were washed with PBS and replaced with 1.5 mL of medium containing a treatment, and observed at 0, 15, 24, and 39-hour points. NIS-element AR 3.0 (Nikon Instruments Inc.) software was used to take images at different time points with 10× magnification, and to measure gap sizes.
Inflammation is a factor that stimulates cell migration and is associated with a wide range of ailments including cancer (29). Inflammatory PGE2 produced by mPGES-1 has been reported to be directly associated with cancer cell migration and development (30-33). […] After 39 hours of culture, the gaps were measured (FIG. 10A) and quantified (FIG. 10B and FIG. 10C). […]

Molecule	inhibition of inflammatory PGE2 production (COX-2-10aa-mPGES-1)	inhibition of cancer cell migration within the gaps (PC-3 cells)
2-[4-(trimethyl) phenyl]-1,3-benzoxazol-5-amine [3-Methyl]	able to inhibit inflammatory PGE2 production with very similar dose-response concentrations of the COX-2 inhibitor	very effective inhibition of cancer cell migration
Nc1ccc2oc(-c3ccc(C(F)(F)F)cc3)nc2c1 [3-F, 2-[4-(trifluoromethyl)phenyl]-1,3-benzoxazol-5-amine]	able to inhibit inflammatory PGE2 production with very similar dose-response concentrations of the COX-2 inhibitor	very effective inhibition of cancer cell migration
